T1: DmBCA (Drosophila melanogaster, UniProt Q9VHJ5)
T1 construct: gene CAHbeta; C-terminal thrombin site and His6; baculovirus/Sf9, purified from culture supernatant; thrombin treatment to remove tag; 28/27 kDa before/after thrombin; dimer
T1 sequence (Q9VHJ5 1-255): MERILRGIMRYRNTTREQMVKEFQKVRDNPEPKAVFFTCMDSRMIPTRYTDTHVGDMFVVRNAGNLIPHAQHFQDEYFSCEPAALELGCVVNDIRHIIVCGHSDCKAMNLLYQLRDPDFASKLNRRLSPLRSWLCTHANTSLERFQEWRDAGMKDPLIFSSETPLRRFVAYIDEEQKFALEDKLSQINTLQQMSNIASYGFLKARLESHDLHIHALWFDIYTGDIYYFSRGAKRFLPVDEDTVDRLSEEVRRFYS

B1: Drosophila melanogaster β-carbonic anhydrase (DmBCA) (enzyme, UniProt Q9VHJ5 1-255, looked up)
chain: T1 sequence (Q9VHJ5 1-255)
notes: cDNA from S2 cells; A thrombin cleavage site stands between DmBCA and the C-terminal His6 (primer R4 encodes LVPRGS-HHHHHH after the last residue); also called D. melanogaster β-CA; Drosophila β-CA; source: Sf9 insect cells (baculovirus), purified from the culture supernatant (Probond nickel-chelating resin)

Tests used:
[1] = molecular target: T1, DmBCA; experiment: stopped-flow CO2 hydration assay; assay type: biochemical
[2] = molecular target: the molecule itself; experiment: dynamic light scattering + SEC; DLS (Zetasizer ZS): proteins exchanged to 50 mM Na2HPO4 pH 7.0, 100 mM NaCl, temperature scan 4-50°C, mass estimated from the hydrodynamic diameter with a globular protein standard curve; analytical gel filtration: Superdex200 10/300GL, 50 mM Na2HPO4, 650 mM NaCl pH 7.0, 20-30 μg protein per run

| Molecule | Ki [1] [µM] | stoichiometry N [2] |
| --- | --- | --- |
| Br [Br^-] | 1040 | – |
| N#CO [CNO^-] | 730 | – |
| Cl [Cl^-] | 970 | – |
| F [F^-] | 800 | – |
| NS(N)(=O)=O [H2NSO2NH2] | 150 | – |
| NS(=O)(=O)O [H2NSO3H] | 2450 | – |
| O=C(O)O [HCO3^-] | 26900 | – |
| O=S(O)O [HSO3^-] | 1290 | – |
| S [HS^-] | 1010 | – |
| I [I^-] | 1180 | – |
| O=NO [NO2^-] | 28600 | – |
| O=[N+]([O-])O [NO3^-] | 43700 | – |
| OB(O)c1ccccc1 [Ph-B(OH)2] | 22400 | – |
| N#CS [SCN^-] | 1280 | – |
| O=S(=O)(O)O [SO4^2-] | 1360 | – |
| B1 | – | 2 |
